Like-named read-outs stand apart in the source and are kept apart here.
Assays:
[1] = test system: TNFα release from LPS stimulated THP-1 (hCE-1 +ve) cells; assay: LPS-stimulation of THP-1 cells (TNF-α release); assay type: cell-based, human; conditions: IC50 range, TNF-α after LPS 1 μg/ml, 6 hours, read-out: THP-1 Assay
In short: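 THP-1 cells at 4×10^4 per well were pre-incubated for 16 h, then exposed to inhibitor for 2 h before stimulation with 1 μg/ml LPS for 6 h at 37 °C. TNF-α in cell-free supernatants was measured by sandwich ELISA.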

[2] = target: T1, human recombinant his-tagged HSP90α (Homo sapiens, UniProt P07900); assay: HSP90 enzyme assay (HTRF, competition with biotinylated Geldanamycin); assay type: binding; conditions: IC50 range; read-out: Enzyme Assay
T1 construct: purchased Prospec Technogene #HSP90
In short: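 HTRF competition: compounds (5000 to 0.3 nM, 0.5% DMSO) displace 40 nM biotinylated geldanamycin from 40 nM his-tagged HSP90α. Binding was read via Eu-cryptate anti-his/streptavidin-XL FRET after 20 h at room temperature in Hepes pH 7.3 buffer. IC50 was fitted against controls.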

[3] = test system: TNF-α levels in LPS-stimulated human whole blood; assay: LPS-stimulation of human whole blood (TNF-α levels); assay type: cell-based; conditions: IC50 range, TNF-α after LPS 100 ng/ml, 6 hours
Protocol: Whole blood is taken by venous puncture using heparinised vacutainers (Becton Dickinson) and diluted in an equal volume of RPMI1640 tissue culture media (Sigma). 100 μl is then plated in V-bottomed 96 well tissue culture treated plates. 2 Hours after the addition of the inhibitor in 100 μl of RPMI1640 media, the blood is stimulated with LPS (E. Coli strain 005:B5, Sigma) at a final concentration of 100 ng/ml and incubated at 37° C. in 5% CO2 for 6 hours. TNF-α levels are measured from cell-free supernatants by sandwich ELISA (R&D Systems #QTA00B).

Compound | IC50 ([1]; Homo sapiens, THP-1) [nM] | IC50 [2] [nM] | IC50 ([3]; Homo sapiens) [nM] | IC50 [1] [nM] | IC50 [3] [nM]
CC(C)c1cc(C(=O)N2CCC(CN[C@H](C(=O)OC3CCCC3)c3ccccc3)CC2)c(O)cc1O [Example 36, cyclopentyl (2S)-{[(1-{[2,4-dihydroxy-5-(propan-2-yl)phenyl]carbonyl}piperidin-4-yl)methyl]amino}(phenyl)ethanoate] | 100 to 1000 | < 100 | 100 to 1000 | – | –
cyclopentyl N-[(1-{[2,4-dihydroxy-5-(propan-2-yl)phenyl]carbonyl}piperidin-4-yl)methyl]-L-serinate [Example 33] | – | < 100 | – | 100 to 1000 | 100 to 1000
CC(C)c1cc(C(=O)N2CCC(N[C@H](C(=O)OC3CCCC3)c3ccccc3)CC2)c(O)cc1O [Example 4, cyclopentyl (2S)-[(1-{[2,4-dihydroxy-5-(propan-2-yl)phenyl]carbonyl}piperidin-4-yl)amino](phenyl)ethanoate] | > 1000 | < 100 | > 1000 | – | –
cyclopentyl N-(1-{[2,4-dihydroxy-5-(propan-2-yl)phenyl]carbonyl}piperidin-4-yl)-L-valinate [Example 3] | – | < 100 | – | > 1000 | > 1000
CC(C)C[C@H](NCC1CCN(C(=O)c2cc(C(C)C)c(O)cc2O)CC1)C(=O)OC1CCCC1 [Example 21, cyclopentyl N-[(1-{[2,4-dihydroxy-5-(propan-2-yl)phenyl]carbonyl}piperidin-4-yl)methyl]-L-leucinate] | < 100 | < 100 | 100 to 1000 | – | –
CC(C)C[C@@H](NCC1CCN(C(=O)c2cc(C(C)C)c(O)cc2O)CC1)C(=O)OC1CCCC1 [Example 28, cyclopentyl N-[(1-{[2,4-dihydroxy-5-(propan-2-yl)phenyl]carbonyl}piperidin-4-yl)methyl]-D-leucinate] | 100 to 1000 | < 100 | 100 to 1000 | – | –

Further lines, with some results ahead:

IC50 ([1]; Homo sapiens, THP-1) [nM] | IC50 [2] [nM] | IC50 ([3]; Homo sapiens) [nM] | Compound | IC50 [1] [nM] | IC50 [3] [nM]
100 to 1000 | > 1000 | > 1000 | CC(C)c1cc(C(=O)N2CCC(CCN[C@@H](Cc3ccccc3)C(=O)OC3CCCC3)CC2)c(O)cc1O [Example 40, cyclopentyl N-[2-(1-{[2,4-dihydroxy-5-(propan-2-yl)phenyl]carbonyl}piperidin-4-yl)ethyl]-L-phenylalaninate] | – | –
100 to 1000 | < 100 | 100 to 1000 | CC(C)c1cc(C(=O)N2Cc3ccc(CCNC4(C(=O)OC5CCCC5)CCCC4)cc3C2)c(O)cc1O [Example 63, cyclopentyl 1-{[2-(2-{[2,4-dihydroxy-5-(propan-2-yl)phenyl]carbonyl}-2,3-dihydro-1H-isoindol-5-yl)ethyl]amino}cyclopentanecarboxylate] | – | –
100 to 1000 | < 100 | 100 to 1000 | CC(C)c1cc(C(=O)N2CCC(CCN[C@@H](COC(C)(C)C)C(=O)OC3CCCC3)CC2)c(O)cc1O [Example 45, cyclopentyl O-tert-butyl-N-[2-(1-{[2,4-dihydroxy-5-(propan-2-yl)phenyl]carbonyl}piperidin-4-yl)ethyl]-L-serinate] | – | –
100 to 1000 | < 100 | 100 to 1000 | CC(C)c1cc(C(=O)N(C)Cc2ccc(CCNC(C)(C)C(=O)OC3CCCC3)cc2)c(O)cc1O [Example 73, cyclopentyl N-[2-(4-{[{[2,4-dihydroxy-5-(propan-2-yl)phenyl]carbonyl}(methyl)amino]methyl}phenyl)ethyl]-2-methylalaninate] | – | –
100 to 1000 | < 100 | 100 to 1000 | CC(C)C[C@H](NCCc1ccc2c(c1)CN(C(=O)c1cc(C(C)C)c(O)cc1O)C2)C(=O)OC1CCCC1 [Example 61, cyclopentyl N-[2-(2-{[2,4-dihydroxy-5-(propan-2-yl)phenyl]carbonyl}-2,3-dihydro-1H-isoindol-5-yl)ethyl]-L-leucinate] | – | –
< 100 | < 100 | 100 to 1000 | CC(C)c1cc(C(=O)N2Cc3ccc(CN[C@@H](C)C(=O)OC4CCCC4)cc3C2)c(O)cc1O [Example 59, cyclopentyl N-[(2-{[2,4-dihydroxy-5-(propan-2-yl)phenyl]carbonyl}-2,3-dihydro-1H-isoindol-5-yl)methyl]-L-alaninate] | – | –

Reference: patent US9321718B2 (CHROMA THERAPEUTICS LTD., priority 2010, dated 2016)
